Structures can show the parent of a compound that is named as a salt. Activity calls are given as the source filed them. On the calls: in the data inactive means no Kd found up to 30 µM.
Assays:
[1] = target: T1, Electron transfer flavoprotein subunit beta (Homo sapiens, UniProt P38117)
T1 sequence (P38117 whole entry): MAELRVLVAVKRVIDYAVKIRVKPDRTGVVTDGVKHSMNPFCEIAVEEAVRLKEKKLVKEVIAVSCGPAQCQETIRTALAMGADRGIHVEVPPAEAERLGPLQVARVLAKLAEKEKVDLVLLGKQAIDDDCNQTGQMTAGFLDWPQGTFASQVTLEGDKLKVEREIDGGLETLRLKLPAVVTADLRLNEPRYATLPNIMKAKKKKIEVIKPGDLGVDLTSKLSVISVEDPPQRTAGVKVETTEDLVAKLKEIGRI

[2] = target: Serine/threonine-protein kinase N3 (Homo sapiens, UniProt Q6P5Z2)
Chain of Serine/threonine-protein kinase N3 (Q6P5Z2 whole entry): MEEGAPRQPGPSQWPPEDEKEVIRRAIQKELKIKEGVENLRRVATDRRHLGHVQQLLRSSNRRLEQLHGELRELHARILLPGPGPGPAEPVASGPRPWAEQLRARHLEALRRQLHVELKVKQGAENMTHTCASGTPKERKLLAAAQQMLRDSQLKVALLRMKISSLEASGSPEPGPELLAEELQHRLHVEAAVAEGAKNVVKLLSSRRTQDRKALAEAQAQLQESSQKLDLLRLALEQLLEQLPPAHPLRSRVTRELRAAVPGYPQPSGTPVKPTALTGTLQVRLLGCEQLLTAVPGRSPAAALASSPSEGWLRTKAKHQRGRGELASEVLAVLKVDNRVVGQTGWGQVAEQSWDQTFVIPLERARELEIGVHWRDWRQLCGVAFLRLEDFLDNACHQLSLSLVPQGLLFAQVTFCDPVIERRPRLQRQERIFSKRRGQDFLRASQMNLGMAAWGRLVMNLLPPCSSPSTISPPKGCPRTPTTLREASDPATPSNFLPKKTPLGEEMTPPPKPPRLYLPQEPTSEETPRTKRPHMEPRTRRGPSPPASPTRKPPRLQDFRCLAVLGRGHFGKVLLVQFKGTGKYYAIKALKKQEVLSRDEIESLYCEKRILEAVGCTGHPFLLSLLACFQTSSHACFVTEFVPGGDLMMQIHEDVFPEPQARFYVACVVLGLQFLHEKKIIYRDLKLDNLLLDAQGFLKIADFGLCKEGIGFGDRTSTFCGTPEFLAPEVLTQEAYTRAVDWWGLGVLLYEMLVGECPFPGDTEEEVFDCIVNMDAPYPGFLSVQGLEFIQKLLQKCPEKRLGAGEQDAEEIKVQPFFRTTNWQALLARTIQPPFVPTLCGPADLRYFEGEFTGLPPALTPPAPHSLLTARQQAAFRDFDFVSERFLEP

[3] = target: T2, Cyclin-dependent kinase-like 5 (Homo sapiens, UniProt O76039)
T2 sequence (O76039 whole entry): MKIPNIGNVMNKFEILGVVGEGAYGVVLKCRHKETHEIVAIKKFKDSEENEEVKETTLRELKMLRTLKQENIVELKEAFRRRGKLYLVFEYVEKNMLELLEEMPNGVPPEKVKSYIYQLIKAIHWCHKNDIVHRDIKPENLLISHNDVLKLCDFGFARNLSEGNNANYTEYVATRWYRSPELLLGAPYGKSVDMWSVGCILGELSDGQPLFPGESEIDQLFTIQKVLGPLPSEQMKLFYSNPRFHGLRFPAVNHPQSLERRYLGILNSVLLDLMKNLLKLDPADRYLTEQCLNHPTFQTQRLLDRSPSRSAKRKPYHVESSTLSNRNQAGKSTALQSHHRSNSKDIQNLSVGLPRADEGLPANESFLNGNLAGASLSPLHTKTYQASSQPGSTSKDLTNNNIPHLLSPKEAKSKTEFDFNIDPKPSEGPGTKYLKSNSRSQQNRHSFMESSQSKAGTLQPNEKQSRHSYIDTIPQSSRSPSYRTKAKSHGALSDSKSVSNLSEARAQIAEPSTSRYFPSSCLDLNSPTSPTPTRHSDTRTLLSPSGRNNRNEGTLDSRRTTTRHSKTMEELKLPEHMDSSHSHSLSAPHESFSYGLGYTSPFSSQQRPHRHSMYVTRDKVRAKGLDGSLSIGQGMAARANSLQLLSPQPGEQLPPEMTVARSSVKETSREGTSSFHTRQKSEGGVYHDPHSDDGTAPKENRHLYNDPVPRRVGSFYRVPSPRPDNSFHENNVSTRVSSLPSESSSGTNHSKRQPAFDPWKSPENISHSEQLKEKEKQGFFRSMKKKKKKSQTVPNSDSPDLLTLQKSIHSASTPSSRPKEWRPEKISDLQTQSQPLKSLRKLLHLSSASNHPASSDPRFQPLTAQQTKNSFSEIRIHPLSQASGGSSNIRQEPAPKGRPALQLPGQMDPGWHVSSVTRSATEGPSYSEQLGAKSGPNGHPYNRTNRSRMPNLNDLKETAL

[4] = target: Serine/threonine-protein kinase PLK1 (Homo sapiens, UniProt P53350)
Chain of Serine/threonine-protein kinase PLK1 (P53350 whole entry): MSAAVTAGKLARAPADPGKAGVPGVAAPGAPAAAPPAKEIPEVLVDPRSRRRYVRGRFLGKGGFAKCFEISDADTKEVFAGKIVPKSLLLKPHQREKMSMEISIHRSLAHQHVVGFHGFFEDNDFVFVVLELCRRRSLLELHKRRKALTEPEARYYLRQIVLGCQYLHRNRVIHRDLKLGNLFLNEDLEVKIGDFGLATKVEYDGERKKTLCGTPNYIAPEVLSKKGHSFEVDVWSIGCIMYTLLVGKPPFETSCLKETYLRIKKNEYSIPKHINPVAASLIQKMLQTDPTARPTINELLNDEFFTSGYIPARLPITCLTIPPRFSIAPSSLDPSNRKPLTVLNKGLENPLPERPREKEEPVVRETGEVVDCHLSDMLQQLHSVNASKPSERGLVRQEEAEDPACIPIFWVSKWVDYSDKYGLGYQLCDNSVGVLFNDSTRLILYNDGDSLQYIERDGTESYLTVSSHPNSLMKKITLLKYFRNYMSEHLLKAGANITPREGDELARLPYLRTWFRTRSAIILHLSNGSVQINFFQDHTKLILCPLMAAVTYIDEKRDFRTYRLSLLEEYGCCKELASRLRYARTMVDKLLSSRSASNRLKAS

UMP-CMP kinase = target: T3, UMP-CMP kinase (Homo sapiens, UniProt P30085)
T3 sequence (P30085 whole entry): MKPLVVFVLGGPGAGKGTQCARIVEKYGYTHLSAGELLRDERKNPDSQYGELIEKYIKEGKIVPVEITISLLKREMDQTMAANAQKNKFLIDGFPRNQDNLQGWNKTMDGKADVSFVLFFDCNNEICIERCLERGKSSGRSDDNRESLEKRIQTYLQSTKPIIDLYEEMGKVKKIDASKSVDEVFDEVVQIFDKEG

[5] = target: MAP kinase-activated protein kinase 3 (Homo sapiens, UniProt Q16644)
Chain of MAP kinase-activated protein kinase 3 (Q16644 whole entry): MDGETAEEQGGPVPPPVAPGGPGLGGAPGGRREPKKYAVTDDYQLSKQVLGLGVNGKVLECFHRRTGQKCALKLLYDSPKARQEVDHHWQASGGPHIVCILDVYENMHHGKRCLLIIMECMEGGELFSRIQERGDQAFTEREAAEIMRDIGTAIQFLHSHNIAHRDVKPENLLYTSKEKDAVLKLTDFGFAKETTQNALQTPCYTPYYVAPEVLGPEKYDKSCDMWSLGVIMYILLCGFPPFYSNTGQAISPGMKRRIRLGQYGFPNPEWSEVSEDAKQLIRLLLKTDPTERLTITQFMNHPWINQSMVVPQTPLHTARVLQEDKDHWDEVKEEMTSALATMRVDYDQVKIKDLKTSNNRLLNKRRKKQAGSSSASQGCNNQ

[6] = target: T4, Protein kinase C zeta type (Homo sapiens, UniProt Q05513)
T4 sequence (Q05513 whole entry): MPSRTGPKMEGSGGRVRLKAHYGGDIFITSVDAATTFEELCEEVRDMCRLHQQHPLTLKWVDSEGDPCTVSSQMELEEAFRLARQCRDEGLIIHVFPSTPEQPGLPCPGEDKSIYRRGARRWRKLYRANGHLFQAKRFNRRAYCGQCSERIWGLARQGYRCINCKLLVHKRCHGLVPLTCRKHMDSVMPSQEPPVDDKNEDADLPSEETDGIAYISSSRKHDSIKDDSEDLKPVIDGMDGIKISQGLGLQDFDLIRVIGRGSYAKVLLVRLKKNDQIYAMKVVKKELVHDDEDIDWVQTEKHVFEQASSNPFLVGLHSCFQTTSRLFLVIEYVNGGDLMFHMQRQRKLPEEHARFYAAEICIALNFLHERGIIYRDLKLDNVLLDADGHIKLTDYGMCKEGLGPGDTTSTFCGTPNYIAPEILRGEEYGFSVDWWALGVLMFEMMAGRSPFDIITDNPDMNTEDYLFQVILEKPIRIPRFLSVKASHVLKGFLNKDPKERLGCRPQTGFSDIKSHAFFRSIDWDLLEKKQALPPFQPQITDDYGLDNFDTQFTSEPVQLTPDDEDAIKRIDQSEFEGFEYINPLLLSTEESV

[7] = target: Choline-phosphate cytidylyltransferase A (Homo sapiens, UniProt P49585)
Chain of Choline-phosphate cytidylyltransferase A (P49585 whole entry): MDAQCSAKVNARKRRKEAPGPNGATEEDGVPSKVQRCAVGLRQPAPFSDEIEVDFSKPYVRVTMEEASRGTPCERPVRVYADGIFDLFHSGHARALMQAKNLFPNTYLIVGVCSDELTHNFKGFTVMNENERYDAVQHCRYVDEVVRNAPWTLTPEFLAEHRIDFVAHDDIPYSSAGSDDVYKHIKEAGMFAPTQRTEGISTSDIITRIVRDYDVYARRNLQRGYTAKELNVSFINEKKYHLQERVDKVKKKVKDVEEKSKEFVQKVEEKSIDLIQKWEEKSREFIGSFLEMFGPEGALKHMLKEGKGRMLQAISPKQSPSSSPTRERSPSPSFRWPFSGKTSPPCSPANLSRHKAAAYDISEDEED

[8] = target: Serine/threonine-protein kinase Nek7 (Homo sapiens, UniProt Q8TDX7)
Chain of Serine/threonine-protein kinase Nek7 (Q8TDX7 whole entry): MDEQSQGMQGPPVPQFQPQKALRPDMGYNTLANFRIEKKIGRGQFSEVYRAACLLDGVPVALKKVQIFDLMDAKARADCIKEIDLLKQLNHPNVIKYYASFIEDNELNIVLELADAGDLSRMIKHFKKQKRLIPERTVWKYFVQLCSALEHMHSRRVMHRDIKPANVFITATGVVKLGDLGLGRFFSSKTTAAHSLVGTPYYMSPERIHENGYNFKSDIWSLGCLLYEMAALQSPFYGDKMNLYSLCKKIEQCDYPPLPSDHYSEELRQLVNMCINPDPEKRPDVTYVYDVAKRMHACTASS

[9] = target: Cell division cycle 7-related protein kinase (Homo sapiens, UniProt O00311)
Chain of Cell division cycle 7-related protein kinase (O00311 whole entry): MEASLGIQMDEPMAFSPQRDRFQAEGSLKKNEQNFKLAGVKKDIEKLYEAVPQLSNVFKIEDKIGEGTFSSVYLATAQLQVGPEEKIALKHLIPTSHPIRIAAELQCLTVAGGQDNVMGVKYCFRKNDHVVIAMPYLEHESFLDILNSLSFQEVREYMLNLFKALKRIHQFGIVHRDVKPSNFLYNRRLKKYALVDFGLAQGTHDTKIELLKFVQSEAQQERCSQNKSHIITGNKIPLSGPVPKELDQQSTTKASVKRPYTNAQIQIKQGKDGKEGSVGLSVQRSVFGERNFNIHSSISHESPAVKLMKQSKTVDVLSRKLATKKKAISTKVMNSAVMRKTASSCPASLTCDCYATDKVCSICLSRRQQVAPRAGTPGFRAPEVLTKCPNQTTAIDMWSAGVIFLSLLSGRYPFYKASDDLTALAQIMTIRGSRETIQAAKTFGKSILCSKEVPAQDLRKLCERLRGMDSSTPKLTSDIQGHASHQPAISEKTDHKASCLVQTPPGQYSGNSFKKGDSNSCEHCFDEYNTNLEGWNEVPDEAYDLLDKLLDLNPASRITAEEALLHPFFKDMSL

Row | Kd [1] | Kd [2] | Kd [3] | Kd [4] | Kd (UMP-CMP kinase) | Kd [5] | Kd [6] | Kd [7] | Kd [8] | Kd [9] | SMILES
1 | > 30 µM (inactive) | > 30 µM (inactive) | > 30 µM (inactive) | > 30 µM (inactive) | > 30 µM (inactive) | > 30 µM (inactive) | – | – | – | – | C=CC(=O)N1CCC[C@H](n2c(=O)n(-c3ccc(Oc4ccccc4)cc3)c3c(N)ncnc32)C1
2 | > 30 µM (inactive) | 0.013 µM | > 30 µM (inactive) | > 30 µM (inactive) | – | > 30 µM (inactive) | > 30 µM (inactive) | > 30 µM (inactive) | – | – | Cc1nc2cc(-c3nn(C(C)C)c4ncnc(N)c34)ccc2o1
3 | – | 0.023 µM | – | > 30 µM (inactive) | – | > 30 µM (inactive) | – | – | > 30 µM (inactive) | – | Nc1ncnc2c1c(-c1cccc(OCc3ccccc3)c1)cn2[C@H]1C[C@@H](CN2CCC2)C1 [AEW-541]
4 | > 30 µM (inactive) | – | – | – | > 30 µM (inactive) | > 30 µM (inactive) | – | – | – | – | Cc1csc(-c2nnc(Nc3ccc(Oc4ncccc4-c4ccnc(N)n4)cc3)c3ccccc23)c1 [AMG-900]
5 | – | > 30 µM (inactive) | > 30 µM (inactive) | – | – | > 30 µM (inactive) | > 30 µM (inactive) | – | – | – | C=CC(=O)Nc1cc2c(Nc3ccc(F)c(Cl)c3)ncnc2cc1C#CC(C)(C)N1CCN(C)CC1 [AV-412 FREE BASE]
6 | > 30 µM (inactive) | > 30 µM (inactive) | – | > 30 µM (inactive) | > 30 µM (inactive) | > 30 µM (inactive) | – | > 30 µM (inactive) | – | > 30 µM (inactive) | Cn1cnc2c(F)c(Nc3ccc(Br)cc3F)c(C(=O)NOCCO)cc21 [BINIMETINIB]
7 | > 30 µM (inactive) | – | > 30 µM (inactive) | > 30 µM (inactive) | > 30 µM (inactive) | > 30 µM (inactive) | – | – | > 30 µM (inactive) | > 30 µM (inactive) | CCn1c(C(=O)N(C2CC2)C2CC2)cc2c3c(ncn3C)c(Nc3cc(C)n(C)n3)nc21 [BMS-911543]
8 | > 30 µM (inactive) | > 30 µM (inactive) | – | > 30 µM (inactive) | > 30 µM (inactive) | > 30 µM (inactive) | > 30 µM (inactive) | – | – | > 30 µM (inactive) | COc1cc2ncnc(Oc3cccc(NC(=O)Nc4cc(C(C)(C)C(F)(F)F)on4)c3)c2cc1OC [CEP-32496]
9 | – | > 30 µM (inactive) | > 30 µM (inactive) | > 30 µM (inactive) | – | > 30 µM (inactive) | > 30 µM (inactive) | – | > 30 µM (inactive) | – | Cc1cc(Nc2ncc(Cl)c(Nc3ccccc3S(=O)(=O)C(C)C)n2)c(OC(C)C)cc1C1CCNCC1 [CERITINIB]
10 | – | – | > 30 µM (inactive) | – | – | > 30 µM (inactive) | > 30 µM (inactive) | – | – | > 30 µM (inactive) | CCS(=O)(=O)N1CCN(c2ccc(Nc3ncc(C(N)=O)c(NC4CC4)n3)cc2)CC1 [Cerdulatinib Hydrochloride]
11 | > 30 µM (inactive) | > 30 µM (inactive) | – | – | – | > 30 µM (inactive) | > 30 µM (inactive) | > 30 µM (inactive) | – | – | C[C@@H](Oc1cc(-n2cnc3ccc(CN4CCN(C)CC4)cc32)sc1C(N)=O)c1ccccc1C(F)(F)F [GSK-461364]
12 | – | > 30 µM (inactive) | – | – | > 30 µM (inactive) | > 30 µM (inactive) | – | > 30 µM (inactive) | > 30 µM (inactive) | > 30 µM (inactive) | NC1(c2ccc(-c3nc4ccn5c(=O)[nH]nc5c4cc3-c3ccccc3)cc2)CCC1 [MK-2206]
13 | > 30 µM (inactive) | – | – | > 30 µM (inactive) | > 30 µM (inactive) | > 30 µM (inactive) | > 30 µM (inactive) | – | > 30 µM (inactive) | > 30 µM (inactive) | COc1ncc(-c2ccc3nccc(-c4ccnnc4)c3c2)cc1NS(=O)(=O)c1ccc(F)cc1F [OMIPALISIB]
14 | > 30 µM (inactive) | > 30 µM (inactive) | – | – | – | > 30 µM (inactive) | > 30 µM (inactive) | – | – | > 30 µM (inactive) | O=C(NOCCO)c1cc(CN2OCCCC2=O)c(F)c(F)c1Nc1ccc(I)cc1F [RO-4987655]
15 | > 30 µM (inactive) | > 30 µM (inactive) | > 30 µM (inactive) | > 30 µM (inactive) | > 30 µM (inactive) | – | > 30 µM (inactive) | > 30 µM (inactive) | – | > 30 µM (inactive) | CO[C@H]1C[C@@H]2CC[C@@H](C)[C@@](O)(O2)C(=O)C(=O)N2CCCC[C@H]2C(=O)O[C@H]([C@H](C)C[C@@H]2CC[C@@H](O)[C@H](OC)C2)CC(=O)[C@H](C)/C=C(\C)[C@@H](O)[C@@H](OC)C(=O)[C@H](C)C[C@H](C)/C=C/C=C/C=C/1C [SIROLIMUS]
16 | – | > 30 µM (inactive) | > 30 µM (inactive) | – | – | 0.002 µM | – | > 30 µM (inactive) | > 30 µM (inactive) | – | COc1cc2c(Nc3ccc(Cl)c(Cl)c3F)ncnc2cc1OC[C@@H]1C[C@@H]2CN(C)C[C@@H]2C1 [TESEVATINIB]
17 | > 30 µM (inactive) | – | – | > 30 µM (inactive) | > 30 µM (inactive) | – | > 30 µM (inactive) | > 30 µM (inactive) | > 30 µM (inactive) | – | O=C(Cc1ccc(-c2ccc(OCCN3CCOCC3)cc2)cn1)NCc1ccccc1 [TIRBANIBULIN]
18 | > 30 µM (inactive) | – | – | – | > 30 µM (inactive) | > 30 µM (inactive) | > 30 µM (inactive) | – | > 30 µM (inactive) | – | O=C1NC(=O)[C@@H](c2cn3c4c(cccc24)CCC3)[C@@H]1c1c[nH]c2ccccc12 [TIVANTINIB]
19 | – | > 30 µM (inactive) | > 30 µM (inactive) | > 30 µM (inactive) | – | > 30 µM (inactive) | – | > 30 µM (inactive) | – | > 30 µM (inactive) | C[C@@H](N)c1ccc(C(=O)Nc2ccnc3[nH]ccc23)cc1 [Y-39983]

Row | SMILES | Kd [1] | Kd [2] | Kd [3] | Kd [4] | Kd (UMP-CMP kinase) | Kd [5] | Kd [6] | Kd [7] | Kd [8] | Kd [9]
20 | Cn1cc(C2=C(c3cn(C4CCN(Cc5ccccn5)CC4)c4ccccc34)C(=O)NC2=O)c2ccccc21 [ENZASTAURIN] | – | – | – | – | – | > 30 µM (inactive) | – | – | – | > 30 µM (inactive)
21 | CCOc1cc2ncc(C#N)c(Nc3ccc(F)c(Cl)c3)c2cc1NC(=O)/C=C/CN(C)C [PELITINIB] | > 30 µM (inactive) | > 30 µM (inactive) | – | > 30 µM (inactive) | > 30 µM (inactive) | > 30 µM (inactive) | – | – | > 30 µM (inactive) | > 30 µM (inactive)
22 | Cc1cc(Nc2ncnc3ccc(NC4=NC(C)(C)CO4)cc23)ccc1Oc1ccn2ncnc2c1 [TUCATINIB] | – | > 30 µM (inactive) | > 30 µM (inactive) | – | > 30 µM (inactive) | > 30 µM (inactive) | > 30 µM (inactive) | > 30 µM (inactive) | > 30 µM (inactive) | > 30 µM (inactive)
